The values below come from PubChem BioAssay (NCI).

Some test systems named below: OVCAR-4 ovarian; UACC-62 melanoma; UACC-257 melanoma; NCI-H226 lung; KM12 colon; SF-268 CNS; A498 renal; MALME-3M melanoma; HCT-116 colon; SF-539 CNS.
Holding throughout (test): NCI anticancer screen, dose series, 48 h

Several values for one entry are separate records, joined by “and”; a condition that tells them apart may be missing. Equal values may be shown once.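 These data come from cells grown in 96-well plates and exposed to compound for 48 hours at five concentrations. Here, GI50 denotes the concentration required for 50% inhibition of growth. TGI: concentration producing complete growth inhibition.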

As to `COc1cc2c(cc1O)[C@H](Cc1ccc(Oc3cc(C[C@H]4c5cc(OC)c(OC)cc5CCN4C)ccc3OC)cc1)NCC2`, the TGI was 27.1 µM in the assay on OVCAR-4 ovarian; 32.1 µM in the assay with UACC-62 melanoma; 29.7 µM with UACC-257 melanoma; 26.2 µM in the assay on NCI-H226 lung; 25.7 µM in the assay on KM12 colon; 23.7 µM with SF-268 CNS. Further, the TGI came out at 28.3 µM with A498 renal, 39.6 µM in the assay with MALME-3M melanoma, 20.9 µM in the assay on HCT-116 colon and 22.8 µM in the assay on SF-539 CNS.

In the case of `Fc1ccc(-c2nn(-c3ccccc3)cc2-c2nc3ccccc3o2)cc1`, the GI50 with OVCAR-4 ovarian was 9.12 µM; in the assay with UACC-62 melanoma, 5.5 µM; in the assay with UACC-257 melanoma, 13.3 µM; with NCI-H226 lung it was 13.6 µM; in the assay on KM12 colon, 3.25 µM; in the assay with SF-268 CNS, 4.53 µM. The GI50 was 2.97 µM in the assay with A498 renal, 1.71 µM with MALME-3M melanoma, 2.5 µM with HCT-116 colon and 8.88 µM with SF-539 CNS. The TGI was more than 100 µM in the assay with OVCAR-4 ovarian; 19.6 µM in the assay with UACC-62 melanoma; 48.2 µM in the assay with UACC-257 melanoma; 32 µM in the assay with NCI-H226 lung; more than 100 µM in the assay on KM12 colon; more than 100 µM in the assay on SF-268 CNS. The TGI was 56.7 µM in the assay on A498 renal, 5.99 µM in the assay with MALME-3M melanoma, 20.7 µM in the assay with HCT-116 colon and 28.7 µM with SF-539 CNS.

As for `O=c1c(Cl)c(Cl)cnn1-c1ccccc1`, the TGI in the assay on OVCAR-4 ovarian is 3.95 µM and 2.38 µM; in the assay on UACC-62 melanoma, 3.34 µM and 5.36 µM; in the assay on UACC-257 melanoma, 14.1 µM and 48.4 µM; with NCI-H226 lung, 12.9 µM and 21.4 µM; in the assay on KM12 colon it was 21.3 µM and 23.5 µM; with SF-268 CNS, 15.7 µM and 25.6 µM. The TGI is 31.6 µM and 31.2 µM in the assay on A498 renal; 7.91 µM and 9.73 µM with MALME-3M melanoma; 3.5 µM and 6.4 µM in the assay on HCT-116 colon; 10.2 µM and 23.2 µM in the assay on SF-539 CNS. Moreover, the GI50 with SF-539 CNS was 4.74 µM and 9.8 µM.

As for `O=C1Oc2cc3c(c4cccc1c24)OCN(c1ccc(Cl)cc1)C3`, the TGI with OVCAR-4 ovarian was 96.6 µM; in the assay on UACC-62 melanoma, more than 75 µM; with UACC-257 melanoma, more than 100 µM; with NCI-H226 lung it was more than 100 µM; in the assay with KM12 colon, more than 63.6 µM; in the assay on SF-268 CNS it was more than 100 µM. For the same molecule, the TGI with A498 renal is more than 100 µM; in the assay with MALME-3M melanoma, more than 60.7 µM; with HCT-116 colon, 29.3 µM; in the assay on SF-539 CNS it was 23.9 µM.

As for `O=C(N/N=C/c1cccc(O)c1O)N/N=C/c1cccc(O)c1O`, the TGI is more than 100 µM in the assay on OVCAR-4 ovarian; more than 100 µM in the assay on UACC-62 melanoma; 62.9 µM in the assay on UACC-257 melanoma; 59.5 µM in the assay on NCI-H226 lung; more than 100 µM with KM12 colon; more than 100 µM with SF-268 CNS. The TGI with A498 renal is more than 100 µM; in the assay with MALME-3M melanoma, 74.4 µM; in the assay on HCT-116 colon, 39.8 µM; with SF-539 CNS it was 36.2 µM.

For the molecule `CC(=O)c1ccc(N(/C=C/C(=O)C(F)(F)F)CC(=O)c2ccc(Cl)c(Cl)c2)cc1`, the GI50 in the assay on OVCAR-4 ovarian is 14 µM; in the assay on UACC-62 melanoma, 7.01 µM; in the assay with UACC-257 melanoma, 15.2 µM; with NCI-H226 lung, 10.9 µM; with KM12 colon, 12.8 µM; in the assay on SF-268 CNS, 14.2 µM. The GI50 in the assay with A498 renal is 14.5 µM; with MALME-3M melanoma it was 11.7 µM; in the assay with HCT-116 colon, 13.4 µM; with SF-539 CNS, 20.5 µM. In addition, the TGI came to 33.4 µM in the assay on OVCAR-4 ovarian; 19.8 µM with UACC-62 melanoma; 29.4 µM in the assay on UACC-257 melanoma; 27.3 µM in the assay on NCI-H226 lung; 27.1 µM in the assay on KM12 colon; 31.5 µM in the assay with SF-268 CNS. Also, the TGI stood at 28.2 µM in the assay on A498 renal, 25 µM with MALME-3M melanoma, 26.2 µM in the assay on HCT-116 colon and 36.6 µM in the assay on SF-539 CNS.

In the case of `COc1cc2c(c(O)c1C)C(=O)C(Cl)=CC2=O`, the TGI in the assay with OVCAR-4 ovarian turned out to be 33.7 µM; in the assay with UACC-62 melanoma it was 13.8 µM; in the assay on UACC-257 melanoma, 18.7 µM; in the assay on NCI-H226 lung, 36.5 µM; in the assay with KM12 colon, 42.1 µM; in the assay with SF-268 CNS, 40 µM. Further, the TGI in the assay on A498 renal came out at 33.9 µM; with MALME-3M melanoma, 12.5 µM; in the assay on HCT-116 colon it was 22.6 µM; with SF-539 CNS it was 33.5 µM.

With `COc1cc2c(cc1OC)C1C=NC(C(=O)O)(C2)c2ccccc21` (stereo unspecified), the TGI in the assay on OVCAR-4 ovarian, in the assay on UACC-62 melanoma, with UACC-257 melanoma, in the assay on NCI-H226 lung, with KM12 colon and with SF-268 CNS was more than 100 µM throughout. For the same molecule, the TGI with A498 renal, in the assay on MALME-3M melanoma, in the assay with HCT-116 colon and with SF-539 CNS was more than 100 µM each time.

As for `CN(C)S(=O)(=O)Nc1ccccn1`, the TGI with OVCAR-4 ovarian, in the assay on UACC-62 melanoma, in the assay with UACC-257 melanoma, with NCI-H226 lung, in the assay with KM12 colon and in the assay with SF-268 CNS was more than 100 µM in each case. Also, the TGI with A498 renal, with MALME-3M melanoma, in the assay on HCT-116 colon and in the assay on SF-539 CNS was more than 100 µM in each case.

With `C[Si](C)(C)c1ccc(CC2(Cc3ccc([Si](C)(C)C)cc3)CCNC2)cc1`, the TGI with OVCAR-4 ovarian stood at 4.52 µM; in the assay on UACC-62 melanoma, 3.96 µM; in the assay on UACC-257 melanoma, 5.41 µM; with NCI-H226 lung, 3.34 µM; in the assay on KM12 colon it was 3.62 µM; in the assay with SF-268 CNS, 4.71 µM. Moreover, the TGI in the assay with A498 renal amounted to 2.91 µM; in the assay with MALME-3M melanoma it was 11.6 µM; in the assay on HCT-116 colon it was 3.17 µM; in the assay on SF-539 CNS it was 10.4 µM.

For `O=C1c2ccccc2C(=O)c2c1ccc1[nH]c(CCl)nc21`, the GI50 in the assay with OVCAR-4 ovarian was 3.05 µM; in the assay on UACC-62 melanoma it was 2.06 µM; in the assay with UACC-257 melanoma, 4.23 µM; in the assay on NCI-H226 lung, 2.56 µM; in the assay on KM12 colon it was 3.14 µM; in the assay on SF-268 CNS, 2.22 µM. The GI50 in the assay on A498 renal was 1.27 µM; in the assay on MALME-3M melanoma it was 2.82 µM; in the assay on HCT-116 colon, 1.85 µM; with SF-539 CNS, 3.16 µM. In addition, the TGI in the assay with OVCAR-4 ovarian came out at 11.2 µM; in the assay with UACC-62 melanoma, 4.99 µM; in the assay on UACC-257 melanoma, 15.1 µM; in the assay on NCI-H226 lung, 7.96 µM; with KM12 colon, 10.8 µM; with SF-268 CNS it was 8.1 µM. For the same molecule, the TGI in the assay with A498 renal was 7.06 µM; with MALME-3M melanoma, 10.9 µM; in the assay with HCT-116 colon, 4.7 µM; in the assay on SF-539 CNS it was 11.6 µM.
